Test results as given in patent US20210392889A1, “COMPOSITIONS COMPRISING PYRIDINE CARBOXYLATE HERBICIDES WITH PDS INHIBITOR HERBICIDES” (Corteva Agriscience LLC, priority 2018, published 2021).

Key:
Test in all cases: Greenhouse postemergence herbicidal effect, visual injury after 20-22 d
Format in all cases: in vivo
[1] = tested on: large crabgrass (DIGSA, Digitaria sanguinalis); conditions: Table 4
Description: (§1) Seeds of the desired test plant species were planted in a 90:10% v/v (volume/volume) mixture of PRO-MIX® BX (Premier Tech Horticulture, Quakertown, Pa., USA) and PROFILE® GREENS GRADE™ (Profile Products LLC, Buffalo Grove, Ill., USA) planting mixture, which typically has a pH of 5.2 to 6.2 and an organic matter content of at least 50 percent, in plastic pots with a surface area of 103.2 square centimeters (cm^2). In some aspects, to ensure good germination and healthy plants, a fungicide treatment and/or other chemical or physical treatment was applied. The plants were grown for 7-36 days (d) in a greenhouse with an approximate 14-hour (h) photoperiod which was maintained at about 23° C. during the day and 22° C. during the night. Nutrients and water were added on a regular basis and supplemental lighting was provided with overhead metal halide 1000-Watt lamps as necessary. The plants were employed for testing when they reached the second or third true leaf stage.
(§2) Emulsifiable concentrates of each of each pyridine carboxylate herbicide (Compound A or Compound B) were prepared at 100 grams acid equivalent per liter (g ae/L). The emulsifiable concentrates also included a safener, cloquintocet-mexyl, at 120 grams active ingredient per liter (g ai/L). An aliquot of each emulsifiable concentrate was placed in a 25 mL glass vial and diluted with an aqueous mixture of 1.25% (v/v) ACTIROB® B esterified rapeseed oil (Bayer Crop Science, Research Triangle Park, N.C., USA) or MSO® Concentrate with LECI-TECH® methylated soybean oil (Loveland Products, Loveland, Colo., USA) to obtain concentrated stock solutions at the highest application rate for each herbicide, based upon a 12 milliliter (mL) application volume at a rate of 187 liters per hectare (L/ha). The concentrated stock solutions were further diluted with an aqueous mixture of 1.25% v/v ACTIROB® B or MSO® Concentrate with LECI-TECH® to obtain stock solutions at reduced application rates for each herbicide. Spray solutions of the herbicide combinations (Compound A or Compound B plus PDS inhibitor herbicide) were prepared by adding weighed amounts or aliquots of the PDS inhibitor herbicide to the stock solutions of Compound A or Compound B to form 12-mL spray solutions in two- or three-way combinations.
(§3) The spray solutions were applied to the plant material with an overhead Mandel track sprayer equipped with 8002E nozzles calibrated to deliver 187 L/ha over an application area of 0.503 square meters (m^2) at a spray height of 18 inches ([…] centimeters (cm)) above the average plant canopy. Control plants were sprayed in the same manner with the solvent blank. All pyridine carboxylate herbicide (component a) application rates are given as “g ae/ha” and all PDS inhibitor herbicide (component b) application rates are given as “g ai/ha.”
(§4) The treated plants and control plants were placed in a greenhouse as described above and watered by sub-irrigation to prevent wash-off of the test compounds. After 20-22 d, the condition of the test plants as compared with that of the control plants was determined visually and scored on a scale of 0 to 100 percent where 0 corresponds to no injury and 100 corresponds to complete kill.

[2] = tested on: broad-leaf dock (RUMOB, Rumex obtusifolius); conditions: Table 4
Description: as §1, §2, §3, §4

[3] = tested on: common sunflower (HELAN, Helianthus annuus)
Description: as §1, §2, §3, §4

[4] = tested on: spring rape (BRSNN, Brassica napus)
Description: as §1, §2, §3, §4

[5] = tested on: velvetleaf (ABUTH, Abutilon theophrasti)
Description: as §1, §2, §3, §4

[6] = tested on: poinsettia (EPHHL, Euphorbia heterophylla)
Description: as §1, §2, §3, §4

[7] = tested on: Canada thistle (CIRAR, Cirsium arvense); conditions: for visual injury: Table 1
Description: as §1, §2, §3, §4

[8] = tested on: wild pansy (VIOTR, Viola tricolor)
Description: as §1, §2, §3, §4

[9] = tested on: barnyardgrass (ECHCG, Echinochloa crus-galli); conditions: Table 4
Description: as §1, §2, §3, §4

[10] = tested on: ivyleaf morningglory (IPOHE, Ipomoea hederacea)
Description: as §1, §2, §3, §4

[11] = tested on: common rice (ORYSA, Oryza sativa); conditions: Table 4
Description: as §1, §2, §3, §4

[12] = tested on: wild buckwheat (POLCO, Polygonum convolvulus); conditions: for visual injury: Table 1
Description: as §1, §2, §3, §4

N#CCOC(=O)c1nc(-c2ccc3cc[nH]c3c2F)c(F)c(N)c1Cl [Compound A, cyanomethyl 4-amino-3-chloro-5-fluoro-6-(7-fluoro-1H-indol-6-yl)pyridine-2-carboxylate]
visual injury Obs ([1]; 7.5 g/ha): 45%
visual injury Obs ([1]; 10 g/ha): 25%
visual injury Obs ([2]; 7.5 g/ha): 8%
visual injury Obs ([2]; 10 g/ha): 10%
visual injury Obs ([3]; 7.5 g/ha, Table 5): 83%
visual injury Obs ([3]; 7.5 g/ha, Table 6): 83%
visual injury Obs ([3]; 10 g/ha, Table 5): 88%
visual injury Obs ([3]; 10 g/ha, Table 6): 88%
visual injury Obs ([4]; 7.5 g/ha, Table 2): 55%
visual injury Obs ([4]; 7.5 g/ha, Table 3): 55%
visual injury Obs ([4]; 7.5 g/ha, Table 4): 73%
visual injury Obs ([4]; 10 g/ha, Table 2): 60%
visual injury Obs ([4]; 10 g/ha, Table 3): 70%
visual injury Obs ([4]; 10 g/ha, Table 4): 83%
visual injury Obs ([5]; 7.5 g/ha, Table 4): 68%
visual injury Obs ([5]; 7.5 g/ha, Table 5): 40%
visual injury Obs ([5]; 7.5 g/ha, Table 6): 40%
visual injury Obs ([5]; 10 g/ha, Table 4): 78%
visual injury Obs ([5]; 10 g/ha, Table 5): 48%
visual injury Obs ([5]; 10 g/ha, Table 6): 48%
visual injury Obs ([6]; 7.5 g/ha, Table 5): 91%
visual injury Obs ([6]; 7.5 g/ha, Table 6): 91%
visual injury Obs ([6]; 10 g/ha, Table 5): 83%
visual injury Obs ([6]; 10 g/ha, Table 6): 83%
visual injury ([7]; 7.5 g/ha): 30%
visual injury Obs ([7]; 7.5 g/ha, Table 3): 10%
visual injury Obs ([7]; 7.5 g/ha, Table 4): 23%
visual injury Obs ([7]; 7.5 g/ha, Table 5): 25%
visual injury Obs ([7]; 7.5 g/ha, Table 6): 25%
visual injury Obs ([7]; 7.5 g/ha, Table 7): 18%
visual injury ([7]; 10 g/ha): 40%
visual injury Obs ([7]; 10 g/ha, Table 3): 23%
visual injury Obs ([7]; 10 g/ha, Table 4): 20%
visual injury Obs ([7]; 10 g/ha, Table 5): 20%
visual injury Obs ([7]; 10 g/ha, Table 6): 20%
visual injury Obs ([7]; 10 g/ha, Table 7): 30%
visual injury Obs ([8]; 7.5 g/ha, Table 4): 10%
visual injury Obs ([8]; 7.5 g/ha, Table 5): 3%
visual injury Obs ([8]; 7.5 g/ha, Table 6): 3%
visual injury Obs ([8]; 10 g/ha, Table 4): 18%
visual injury Obs ([8]; 10 g/ha, Table 5): 3%
visual injury Obs ([8]; 10 g/ha, Table 6): 3%
visual injury Obs ([9]; 7.5 g/ha): 73%
visual injury Obs ([9]; 10 g/ha): 78%
visual injury Obs ([10]; 7.5 g/ha, Table 4): 3%
visual injury Obs ([10]; 7.5 g/ha, Table 5): 5%
visual injury Obs ([10]; 7.5 g/ha, Table 6): 5%
visual injury Obs ([10]; 10 g/ha, Table 4): 8%
visual injury Obs ([10]; 10 g/ha, Table 5): 0%
visual injury Obs ([10]; 10 g/ha, Table 6): 0%
visual injury Obs ([11]; 7.5 g/ha): 13%
visual injury Obs ([11]; 10 g/ha): 10%
visual injury ([12]; 7.5 g/ha): 78%
visual injury Obs ([12]; 7.5 g/ha, Table 2): 70%
visual injury Obs ([12]; 7.5 g/ha, Table 3): 88%
visual injury Obs ([12]; 7.5 g/ha, Table 5): 68%
visual injury Obs ([12]; 7.5 g/ha, Table 6): 68%
visual injury Obs ([12]; 7.5 g/ha, Table 7): 60%
visual injury Obs ([12]; 7.5 g/ha, Table 8): 63%
visual injury ([12]; 10 g/ha): 93%
visual injury Obs ([12]; 10 g/ha, Table 2): 78%
visual injury Obs ([12]; 10 g/ha, Table 3): 96%
visual injury Obs ([12]; 10 g/ha, Table 5): 70%
visual injury Obs ([12]; 10 g/ha, Table 6): 70%
visual injury Obs ([12]; 10 g/ha, Table 7): 70%
visual injury Obs ([12]; 10 g/ha, Table 8): 60%
visual injury Obs ([12]; 15 g/ha, Table 8): 63%
